Measured values taken from patent US7994140B2, “Classes of compounds that interact with GPCRs” (Alchemia Limited, priority 2002, dated 2011).

target: T1, MC4 (Homo sapiens, UniProt P32245); assay: GPCR radioligand binding (RLB) assay, melanocortin MC4, [125I]NDP-αMSH; details: 1.0 micromolar compound
T1 construct: purchased Perkin Elmer BioSignal; host or cells: HEK 293
Description: Recombinant human receptors expressed in HEK 293 cells were used for all experiments. Receptor membrane preparations were purchased from Perkin Elmer BioSignal. The labelled ligand used in somatostatin GPCR RLB assays was [^125I]SST-14 and in melanocortin assays was [^125I]NDP-αMSH. All assays were done in a 96-well plate format using either glass fiber filter mats or filter plates. All reagents purchased were of the highest quality.
Specific assay buffer, incubation and washing conditions were optimized for each receptor however they all followed the same general format. The procedures for both filter mat and filter plate formats are based on the receptor manufacturers recommendations or those described extensively in the literature. The procedures are briefly outlined below.
In assays where filter mats are used we incubate receptor membranes, assay buffer and [^125I] labelled ligand in 96 well microplates. Add compounds to incubation mixture and continue incubation for optimized period. Presoak Filter mat GF/B in 0.5% PEI for ˜2 hr at 4° C. On completion of assay mixture incubation add additional 100 μL/well of assay buffer immediately prior to filtration. Filter the assay mixture onto the GF/B filter mat using a cell harvester. Dry the filter mats prior to sealing them into a scintillation counting bag with scintillant. Radioactivity in each well is detected by liquid scintillation counting.
In assays where filter plates are used Multiscreen glass fiber filter plates (Millipore, Cat No MAFCNOB10) are precoated with 0.5% PEI for ˜2 hr at 4° C. All wells are then washed with 200 µl/well assay buffer and filtered using the Multiscreen Separation System. Subsequently receptor membranes, assay buffer and labelled ligands are added to the wells and equilibrated. Compounds for testing are then added to the mixture and incubation is continued for an optimized time. Plates are then put into the Multiscreen Separation System and the assay mixture is filtered through the plate under vacuum. Each well is then washed several times with assay buffer. Plates are then dried prior to putting sealing tape onto the bottom of the plate. Scintillant is added to each well and radioactivity measured by liquid scintillation counting.
Raw data was analysed according to standard methods using either GraphPad Prism software or IDDBS ActivityBase software.

T1 sequence (P32245 whole entry): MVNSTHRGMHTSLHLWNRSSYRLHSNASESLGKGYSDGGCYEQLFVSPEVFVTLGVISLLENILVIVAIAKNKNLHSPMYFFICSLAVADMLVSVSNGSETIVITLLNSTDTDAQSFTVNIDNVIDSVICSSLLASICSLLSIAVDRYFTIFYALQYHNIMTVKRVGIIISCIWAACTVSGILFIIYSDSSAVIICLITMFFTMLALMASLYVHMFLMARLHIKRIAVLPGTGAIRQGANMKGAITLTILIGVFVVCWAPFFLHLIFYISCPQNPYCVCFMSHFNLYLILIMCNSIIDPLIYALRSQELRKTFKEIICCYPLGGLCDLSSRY

SMILES | MC4 Inhibition at 1.0 Micromolar
Cc1ccc(CO[C@H]2[C@H](O)[C@@H](CO)OC(NC(=O)CCN)[C@@H]2NC(=O)c2ccccc2)cc1 (some centres unmarked) [Compound 504] | + (Indicates inhibition greater than . . . 50%)
NCC(=O)NC1O[C@H](CO)[C@@H](O)[C@H](OCc2ccccc2)[C@H]1NC(=O)c1ccccc1 (some centres unmarked) [Compound 506] | + (Indicates inhibition greater than . . . 50%)

same assay, conditions: 4.0 Micromolar; Example Library 10

SMILES | MC4 Inhibition at 4.0 Micromolar
NCC(=O)N[C@H]1C(OCc2ccc3ccccc3c2)O[C@H](COCc2ccc3ccccc3c2)[C@@H](O)[C@@H]1OCc1ccc(Cl)cc1 (some centres unmarked) [Compound 351] | + (Indicates inhibition greater than . . . 50%)
NCCC(=O)N[C@H]1C(OCc2ccc(Cl)cc2)O[C@H](COCc2ccc(Cl)cc2)[C@@H](O)[C@@H]1OCc1ccc(Cl)cc1 (some centres unmarked) [Compound 377] | + (Indicates inhibition greater than . . . 50%)
NCCCC(=O)N[C@H]1C(OCc2ccc(Cl)cc2)O[C@H](COCc2ccc(Cl)cc2)[C@@H](O)[C@@H]1OCc1ccc(Cl)cc1 (some centres unmarked) [Compound 388] | + (Indicates inhibition greater than . . . 50%)
NCC(=O)N[C@H]1C(OCc2ccc(Cl)cc2)O[C@H](COCc2ccccc2)[C@@H](O)[C@@H]1OCc1ccc2ccccc2c1 (some centres unmarked) [Compound 380] | + (Indicates inhibition greater than . . . 50%)
NCCCC(=O)N[C@H]1C(OCc2ccc(Cl)cc2)O[C@H](COCc2ccc(Cl)cc2)[C@@H](O)[C@@H]1OCc1ccccc1 (some centres unmarked) [Compound 396] | + (Indicates inhibition greater than . . . 50%)
NCCC(=O)N[C@H]1C(OCc2ccc3ccccc3c2)O[C@H](COCc2ccc(Cl)cc2)[C@@H](O)[C@@H]1OCc1ccc(Cl)cc1 (some centres unmarked) [Compound 355] | + (Indicates inhibition greater than . . . 50%)
NCC(=O)N[C@H]1C(OCc2ccc3ccccc3c2)O[C@H](COCc2ccc3ccccc3c2)[C@@H](O)[C@@H]1OCc1ccc(Cl)cc1 (some centres unmarked) [Compound 350] | + (Indicates inhibition greater than . . . 50%)

same assay, conditions: 4.0 Micromolar; Example Library 11

SMILES | MC4 Inhibition at 4.0 Micromolar
NCCC(=O)NC1C(OCc2ccc3ccccc3c2)OC(COCc2ccc(Cl)cc2)C(O)C1OCc1ccccc1 (centres unmarked) [Compound 421] | + (Indicates inhibition greater than . . . 50%)
NCCC(=O)NC1C(OCc2ccccc2)OC(COCc2ccc(Cl)cc2)C(O)C1OCc1ccc(Cl)cc1 (centres unmarked) [Compound 399] | + (Indicates inhibition greater than . . . 50%)
NCCCC(=O)NC1C(OCc2ccc3ccccc3c2)OC(COCc2ccc3ccccc3c2)C(O)C1OCc1ccc2ccccc2c1 (centres unmarked) [Compound 425] | + (Indicates inhibition greater than . . . 50%)
NCCCC(=O)NC1C(OCc2ccccc2)OC(COCc2ccccc2)C(O)C1OCc1ccc2ccccc2c1 (centres unmarked) [Compound 409] | + (Indicates inhibition greater than . . . 50%)
NCCC(=O)NC1C(OCc2ccccc2)OC(COCc2ccccc2)C(O)C1OCc1ccc2ccccc2c1 (centres unmarked) [Compound 401] | + (Indicates inhibition greater than . . . 50%)
NCCCC(=O)NC1C(OCc2ccc3ccccc3c2)OC(COCc2ccc3ccccc3c2)C(O)C1OCc1ccccc1 (centres unmarked) [Compound 428] | + (Indicates inhibition greater than . . . 50%)

same assay, conditions: 4.0 Micromolar; Example Library 12

SMILES | MC4 Inhibition at 4.0 Micromolar
N=C(N)NCCC(=O)N[C@H]1C(OCc2ccccc2)O[C@H](COCc2ccc3ccccc3c2)[C@@H](O)[C@@H]1OCc1ccc(Cl)cc1 (some centres unmarked) [Compound 446] | + (Indicates inhibition greater than . . . 50%)
N=C(N)NCC(=O)N[C@H]1C(OCc2ccccc2)O[C@H](COCc2ccccc2)[C@@H](O)[C@@H]1OCc1ccc2ccccc2c1 (some centres unmarked) [Compound 438] | + (Indicates inhibition greater than . . . 50%)
N=C(N)NCCC(=O)N[C@H]1C(OCc2ccccc2)O[C@H](COCc2ccccc2)[C@@H](O)[C@@H]1OCc1ccc2ccccc2c1 (some centres unmarked) [Compound 453] | + (Indicates inhibition greater than . . . 50%)
N=C(N)NCC(=O)N[C@H]1C(OCc2ccccc2)O[C@H](COCc2ccc(Cl)cc2)[C@@H](O)[C@@H]1OCc1ccc2ccccc2c1 (some centres unmarked) [Compound 439] | + (Indicates inhibition greater than . . . 50%)
N=C(N)NCCC(=O)N[C@H]1C(OCc2ccccc2)O[C@H](COCc2ccc(Cl)cc2)[C@@H](O)[C@@H]1OCc1ccc(Cl)cc1 (some centres unmarked) [Compound 451] | + (Indicates inhibition greater than . . . 50%)

same assay, conditions: 4.0 Micromolar; Example Library 13

SMILES | MC4 Inhibition at 4.0 Micromolar
N=C(N)NCC(=O)N[C@H]1C(OCc2ccc(-c3ccccc3)cc2)O[C@H](COCc2ccccc2)[C@@H](O)[C@H]1OCc1ccc(-c2ccccc2)cc1 (some centres unmarked) [Compound 468] | + (Indicates inhibition greater than . . . 50%)
N=C(N)NCC(=O)N[C@H]1C(OCc2ccc(Cl)cc2)O[C@H](COCc2ccc3ccccc3c2)[C@@H](O)[C@H]1OCc1ccc(Cl)cc1 (some centres unmarked) [Compound 479] | + (Indicates inhibition greater than . . . 50%)
N=C(N)NCC(=O)NC1C(OCc2ccc(Cl)cc2)OC(COCc2ccc(Cl)cc2)C(O)C1OCc1ccc(-c2ccccc2)cc1 (centres unmarked) [Compound 487] | + (Indicates inhibition greater than . . . 50%)
N=C(N)NCCC(=O)N[C@H]1C(OCc2ccc(-c3ccccc3)cc2)O[C@H](COCc2ccccc2)[C@@H](O)[C@H]1OCc1ccc2ccccc2c1 (some centres unmarked) [Compound 474] | + (Indicates inhibition greater than . . . 50%)
N=C(N)NCC(=O)NC1C(OCc2ccc(Cl)cc2)OC(COCc2ccc(Cl)cc2)C(O)C1OCc1ccc(Cl)cc1 (centres unmarked) [Compound 481] | + (Indicates inhibition greater than . . . 50%)
N=C(N)NCCC(=O)NC1C(OCc2ccc(Cl)cc2)OC(COCc2ccccc2)C(O)C1OCc1ccc(Cl)cc1 (centres unmarked) [Compound 489] | + (Indicates inhibition greater than . . . 50%)
N=C(N)NCCC(=O)NC1C(OCc2ccc(Cl)cc2)OC(COCc2ccc(Cl)cc2)C(O)C1OCc1ccc(-c2ccccc2)cc1 (centres unmarked) [Compound 496] | + (Indicates inhibition greater than . . . 50%)
N=C(N)NCCC(=O)N[C@H]1C(OCc2ccc(-c3ccccc3)cc2)O[C@H](COCc2ccc3ccccc3c2)[C@@H](O)[C@H]1OCc1ccc(Cl)cc1 (some centres unmarked) [Compound 470] | + (Indicates inhibition greater than . . . 50%)
N=C(N)NCCC(=O)NC1C(OCc2ccc(Cl)cc2)OC(COCc2ccc(Cl)cc2)C(O)C1OCc1ccc2ccccc2c1 (centres unmarked) [Compound 493] | + (Indicates inhibition greater than . . . 50%)

same assay, conditions: 10 micromolar compound; recombinant human receptor membranes (HEK 293)

SMILES | MC4 inhibition at 10 micromolar
COC1C(O)C(COCc2ccc(Cl)cc2)OC(OCc2ccc(-c3ccccc3)cc2)C1NC(=O)CCCNC(=N)N (centres unmarked) [Compound 66] | + (Indicates inhibition greater than . . . 50%)
CSC1OC(COC(=O)c2c[nH]c3ccccc23)C(O)C(OCc2cccc(N)c2)C1NCc1ccc(Cl)cc1 (centres unmarked) [Compound 314] | + (Indicates inhibition greater than . . . 50%)
COC1C(O)C(COCc2ccc3ccccc3c2)OC(OCc2ccc3ccccc3c2)C1NC(=O)CCCNC(=N)N (centres unmarked) [Compound 74] | + (Indicates inhibition greater than . . . 50%)
CO[C@H]1[C@H](O)[C@@H](COCc2ccc3ccccc3c2)OC(OCc2cccc(O)c2)[C@@H]1NC(=O)CCCNC(=N)N (some centres unmarked) [Compound 115] | + (Indicates inhibition greater than . . . 50%)
COC[C@H]1OC(OCc2ccccc2)[C@H](NC(=O)CNC(=N)N)[C@@H](OCc2ccc(-c3ccccc3)cc2)[C@@H]1O (some centres unmarked) [Compound 5] | + (Indicates inhibition greater than . . . 50%)
CO[C@H]1[C@H](O)[C@@H](COCc2ccc3ccccc3c2)OC(OCc2ccc(-c3ccccc3)cc2)[C@@H]1NC(=O)CNC(=N)N (some centres unmarked) [Compound 59] | + (Indicates inhibition greater than . . . 50%)
CSC1O[C@H](COCc2cccc(N)c2)[C@@H](O)[C@H](OCc2ccccc2)[C@H]1NC(=O)/C=C/c1ccccc1 (some centres unmarked) [Compound 335] | + (Indicates inhibition greater than . . . 50%)
CO[C@H]1[C@H](O)[C@@H](COCc2ccc(Cl)cc2)OC(OCCc2ccccc2)[C@@H]1NC(=O)CCNC(=N)N (some centres unmarked) [Compound 105] | + (Indicates inhibition greater than . . . 50%)
COC1C(O)C(COCc2ccc(Cl)cc2)OC(OCc2ccc(-c3ccccc3)cc2)C1NC(=O)CNC(=N)N (centres unmarked) [Compound 63] | + (Indicates inhibition greater than . . . 50%)
COC1C(O)C(COCc2ccc(Cl)cc2)OC(OCc2ccc3ccccc3c2)C1NC(=O)CNC(=N)N (centres unmarked) [Compound 75] | + (Indicates inhibition greater than . . . 50%)
CO[C@H]1[C@H](O)[C@@H](COCc2ccc(-c3ccccc3)cc2)OC(OCc2cccc(O)c2)[C@@H]1NC(=O)CNC(=N)N (some centres unmarked) [Compound 112] | + (Indicates inhibition greater than . . . 50%)
CSC1O[C@H](COCc2cccc(N)c2)[C@@H](O)[C@H](OCc2ccccc2)[C@H]1NC(=O)Cc1ccccc1 (some centres unmarked) [Compound 334] | + (Indicates inhibition greater than . . . 50%)
